The conditions of the first series: 22.0 °C.
As for `C1=Cc2ccccc2C1`, the log10 OH rate constant (cm³/molecule/s) is -10.3.
For the compound `FC(Cl)C(F)(F)C(F)(F)Cl` (centres undefined), the log10 OH rate constant (cm³/molecule/s) is -14.1.
As to `CCCCSCCCC`, the log10 OH rate constant (cm³/molecule/s) is -10.4.

Still in this series, the particulars now being: 23.0 °C.
Consider `CC1(C)C2CC3C(C2)C31C`, for which the log10 OH rate constant (cm³/molecule/s) is -11.5.
Regarding `FC(F)(Br)C(F)(F)Br`, the log10 OH rate constant (cm³/molecule/s) is < -15.9.
As to `C[C@@H]1CC[C@@H]2C[C@H]1C2(C)C`, the log10 OH rate constant (cm³/molecule/s) was -10.9.

The same series, now with this note: 24.0 °C.
Regarding `FC(F)(Br)Br`, the log10 OH rate constant (cm³/molecule/s) is < -15.2.

Staying with this series, now noted: 25.0 °C.
For `FC(Cl)(Cl)Cl`, the log10 OH rate constant (cm³/molecule/s) was < -15.3.
In the case of `CCCCCCCCO`, the log10 OH rate constant (cm³/molecule/s) is -10.8.
On the same count and under the same terms, then `C=CC[N+](=O)[O-]`, with -10.9.
For `FC(F)(F)C(F)(F)C(Cl)Cl`, the log10 OH rate constant (cm³/molecule/s) was -13.6.
The same measure, in the same setting: then `C`, with -14.2.
In the case of `C=C[N+](=O)[O-]`, the log10 OH rate constant (cm³/molecule/s) was -11.9.
As to `CC(C)(C)OO`, the log10 OH rate constant (cm³/molecule/s) is -11.5.
On to `CCON=O`, for which the log10 OH rate constant (cm³/molecule/s) is -12.2.
For `CCOCC`, the log10 OH rate constant (cm³/molecule/s) is -10.9.
The same measure, in the same setting: then `O=[N+]([O-])C1=CCCCC1`, with -10.4; and `CCCCON=O`, with -11.6.
As to `CON=O`, the log10 OH rate constant (cm³/molecule/s) was -12.7.
Regarding `CCCl`, the log10 OH rate constant (cm³/molecule/s) is -12.4.
As to `CC[N+](=O)[O-]`, the log10 OH rate constant (cm³/molecule/s) is -12.8.
Turning to `FC(Br)(Br)Br`, the log10 OH rate constant (cm³/molecule/s) is < -15.
For `FC(F)(F)Br`, the log10 OH rate constant (cm³/molecule/s) was < -16.
Still for that read-out and setting: then `C1C2C3C2C2C1C32` (centres undefined), with -11.7.
On to `CC#N`, for which the log10 OH rate constant (cm³/molecule/s) was -13.6.
For `CCCCCCCCCCCC`, the log10 OH rate constant (cm³/molecule/s) was -10.8.
In the case of `CCCCO[N+](=O)[O-]`, the log10 OH rate constant (cm³/molecule/s) is -11.8.
Still for that read-out and setting: then `COS(=O)(=O)OC`, with < -12.3; and `CSC`, with -11.3.

Values taken from the OPERA property sets (Mansouri et al. 2018).
